According to US20080176851A1, “Method for inhibiting lymphangiogenesis and inflammation” (Shiseido Company, Ltd., priority 2006, published 2008):
“Also recorded” adds a separate entry of the source.

Key:
[1] = test system: LEC; experiment: LEC proliferation assay (5-methylumbelliferylheptanoate fluorescence); type: cell-based, human
Experimental: (§1) Human dermal BVEC and LEC were isolated from neonatal human foreskins by immunomagnetic purification as previously described(18, 19). The lineage-specific differentiation was confirmed by real-time RT-PCR for the lymphatic vascular markers Prox1, LYVE-1 and podoplanin, and for the blood vascukar endothelial markers VEGF receptor-1 and VEGF-C, as well as by immunostains for CD31, Prox1 and podoplanin as described(18, 19). Cells were cultured in endothelial basal medium (Cambrex, Verviers, Belgium) supplemented with 20% fetal bovine serum (Gibco, Paisley, UK), antibiotics, 2 mM L-glutamine, 10 μg/ml hydrocortisone and 2.5×10^−2 mg/ml N-6,2-O-dibutyryl-adenosine 3′,5′-cyclic monophosphate (all from Fluka, Buchs, Switzerland) for up to eleven passages.
LEC (1.5×10^3) were seeded into fibronectin-coated 96-well plates as described(19). For proliferation studies, quinduplicate wells were treated or not with different concentrations (0.1 to 10 μM) of the NO donor SNAP (S-Nitroso-N-acetyl-D,L-penicillamine) (Cayman Chemical, Ann Arbor, Mich.) in EBM containing 2% fetal bovine serum. In additional assays, LEC were incubated with 10 μM of SNAP, in the presence or absence of the specific guanylate cyclase inhibitor NS-2028 (100 nM, Cayman Chemical, Ann Arbor, Mich.). After 72 hours, cells were incubated with 5-methylumbelliferylheptanoate as described. The fluorescence intensity, proportional to the number of viable cells, was measured using a Spectra Max GEMINI EM (Bucher Biotech AG, Basel, Switzerland). Haptotatic cell migration was studied as described(19), using 24-well FluoroBlok inserts of 8 μm pore size (Falcon, Franklin Lakes, N.J.). […] After 3 hours incubation at 37° C., cells on the underside of the inserts were stained with Calcein-AM (Molecular Probes), and the fluorescence intensity, proportional to the number of viable cells, was measured using a Spectra Max GEMINI EM as described(19). […] Representative images were captured and the total length of tube-like structures per area was measured using the IP-LAB software as described(19). […]

[2] = test system: lymphatic vessels; experiment: LYVE-1 immunohistochemistry and morphometric analysis of cutaneous lymphatic vessels after UVB; type: in vivo; conditions: UVB-irradiated mice; for enlargement of lymphatic vessels in the dermis (LYVE-1): vs vehicle
Experimental: (§2) Immunofluorescence analysis was performed on 6-μm cryostat sections of human neonatal foreskins as described, using polyclonal antibodies against LYVE-1 (kindly provided by Dr. David Jackson, Oxford, UK), sGCα1, sGCβ1, eNOS (as described above), or a mouse monoclonal antibody against human podoplanin (20) (clone D2-40, Signet Laboratories, Dedham, Mass.), and corresponding secondary antibodies labeled with AlexaFluor488 or AlexaFluor594 (Molecular Probes, Eugene, Oreg.). Immunohistochemical analysis was performed on 5 μm AMEX-fixed sections as described(30), using antibodies against the macrophage monocyte marker MOMA-2 (BMA Biomedicals AG, Switzerland) or LYVE-1. Routine hematoxylin-eosin staining was also performed. Sections were examined by a Nikon E-600 microscope (Nikon, Melville, N.Y.) and images were captured with a SPOT digital camera (Diagnostic Instruments, Sterling Heights, Mich.). Computer-assisted morphometric analyses of representative LYVE-1-stained sections were performed as described(3).
(§3) A total of 15 female albino HR-1 hairless mice (Hoshino Laboratory Animal Co., Ltd, Japan) at 8 weeks of age were exposed to a single dose of 200 mJ/cm^2 of UVB irradiation, using ten Toshiba FL-20 SE fluorescent lamps that deliver energy in the UVB (280-340 nm) wave length range with a maximum energy at a wavelength of 305 nm as described(31). Beginning one day before UVB irradiation, the right ears were daily treated topically with 1 mM of SNAP, 10 μM of NS-2028, or 1 mM of SNAP together with 100 μl of 10 μM of NS-2028 in a 50% ethanol solution (n=5 per group) until day 3 after UVB irradiation (5 times total). The left ears were treated with vehicle only. The thickness of the ears was measured every day until day 4 after the UVB irradiation. At 4 days after the UVB irradiation, mouse ears were fixed in cold acetone (AMeX procedure) (30)and were processed for histological analysis of paraffin sections. All animal studies were approved by the Shiseido Life Science Research Center Committee on Research Animal Care.

[3] = test system: HR-1 hairless mice; experiment: UVB irradiation-induced ear swelling; type: in vivo; conditions: for ear swelling after UVB irradiation vs control-treated: 200 mJ/cm^2 UVB, topical daily 1 mM SNAP or 10 μM NS-2028, days 2-4
Experimental: as §3

[4] = test system: LEC; experiment: Haptotactic LEC migration assay (FluoroBlok inserts); type: cell-based, human; conditions: 10 μM SNAP, 100 nM NS-2028, 3 hours
Experimental: as §1
(§4) LEC (1.5×10^3) were seeded into fibronectin-coated 96-well plates as described(19). […] The fluorescence intensity, proportional to the number of viable cells, was measured using a Spectra Max GEMINI EM (Bucher Biotech AG, Basel, Switzerland). […] After 3 hours incubation at 37° C., cells on the underside of the inserts were stained with Calcein-AM (Molecular Probes), and the fluorescence intensity, proportional to the number of viable cells, was measured using a Spectra Max GEMINI EM as described(19). […] Representative images were captured and the total length of tube-like structures per area was measured using the IP-LAB software as described(19). […]

[5] = test system: HR-1 hairless mice; experiment: Histology (hematoxylin-eosin) and MOMA-2 immunohistochemistry of UVB-irradiated ears; type: in vivo; conditions: for MOMA-2 positive cells / macrophage infiltration in the dermis / edema formation in the dermis vs control-treated: day 4 after UVB irradiation
Experimental: as §2, §3

[6] = test system: LEC; experiment: LEC tube formation assay (type I collagen overlay); type: cell-based, human
Experimental: as §1, §4

[7] = test system: cGMP production in LEC; experiment: cGMP enzyme immunoassay in siRNA-transfected LEC; type: cell-based, human
Experimental: siRNA transfection was performed using the Basic Nucleofactor Kit for primary mammalian endothelial cells (Amaxa Biosystems, CITY, Germany). Briefly, after trypsinization, LEC (5×10^5) were resuspended in 100 μl of basic nucleofactor solution. Cells were transfected by electroporation (Nucleofactor II, Amaxa Biosystems), using 1.6 μg of siRNA containing two different double-stranded oligonucleotides for each sGCα2 or sGCα1. The following siRNAs were used: GCα1: CCUUGUACAUAUAUCAGAUtt and GGCACCCUUAAAGAUUUUUtt, GCα2: CGAUACAGCAGACUCUCAAtt and GCUAUGCUCUGAUGUUUCAtt. Control siRNA (Silencer negative control #1 siRNA, Ambion, Cambridgeshire, UK) comprising a 19-bp scrambled sequence with 3′dT overhangs was used as a control; the sequences has no significant sequence homology to any known gene sequence. At 72 hours after tranfection, cells were used for RNA purification or for cGMP assays. Efficient knockdown of mRNA expression was confirmed by TaqMan real-time RT-PCR for sGCα1 and sGCα2 (Applied Biosystems assay ID for sGCα2 was Hs00181365_ml). For cGMP enzyme immunoassays, 1×10^4 siRNA-transfected LEC were seeded into individual wells of a 96-well plate and were incubated with 2% FBS-containing medium. After 24 hours, cells were incubated with several concentrations of SNAP (1-100 μM) for 15 minutes. The cellular cGMP concentrations were measured using an EIA immunoassay kit (Amersham Biosciences, Freiburg, Germany).

[8] = day 4 after UVB, SNAP in the presence of NS-2028

cGMP production in control siRNA- and sGCα2-siRNA transfected LEC ([7]; SNAP 1-100 μM, 15 minutes)	Molecule	effect on SNAP-induced LEC proliferation ([1]; 10 μM SNAP, NS-2028 100 nM, 72 hours)	effect on untreated LEC (proliferation) ([1]; NS-2028 alone)	SNAP-induced enlargement of lymphatic vessels ([2]; SNAP with NS-2028)	average size of lymphatic vessels ([2]; day 4, mean±SEM n=5)	enlargement of lymphatic vessels in the dermis (LYVE-1) [2]	ear swelling after UVB irradiation vs control-treated [3]	SNAP-induced augmentation of the UVB response (ear swelling) ([3]; combined topical treatment 1 mM SNAP and 10 μM NS-2028)	effect on SNAP-induced LEC migration [4]	MOMA-2 positive cells / macrophage infiltration in the dermis [5]	edema formation in the dermis vs control-treated [5]	SNAP-induced edema formation [5, 8]	SNAP-induced macrophage infiltration [5, 8]	minimal effective concentration for induction of LEC proliferation ([1]; SNAP 0.1 to 10 μM, 72 hours, EBM 2% fetal bovine serum)	formation of tube-like structures vs untreated cultures ([6]; 1 μM or 10 μM SNAP)	minimal effective dose for in vitro cord formation by LEC ([6]; type I collagen gel overlay, 6 hours)	area occupied by lymphatic vessels ([2]; day 4, mean±SEM n=5)	minimal effective dose for increased cGMP production ([7]; control siRNA-transfected and sGCα2 siRNA-transfected LEC, SNAP 15 minutes)	induction of cGMP production in sGCα1-siRNA transfected LEC ([7]; sGCα1 knockdown, SNAP 1-100 μM)
	4H-8-Bromo-1,2,4-oxadiazolo(3,4-d)benz(b)(1,4)oxazin-1-one [NS-2028]	significantly blocked	did not have any effect	inhibited	350.1 μm^2	completely blocked	significantly reduced	completely prevented	blocked; also recorded: strongly inhibited	less MOMA-2 positive cells	decreased	blocked	blocked						
dose-dependently induced	CC(=O)NC(C(=O)O)C(C)(C)SN=O (racemic) [SNAP, S-Nitroso-N-acetyl-D,L-penicillamine]				730.7 μm^2	pronounced enlargement	significantly enhanced			strongly enhanced	enhanced			1 µM	potently promoted	1 µM	2.18%	1 µM	no induction of cGMP was detected; also recorded: completely prevented
